Test system: Elongator complex protein 1 (ELP1, also referred to as IKBKAP)
Test: IKBKAP-HTRF assay (IKBKAP protein in lysates of FD patient-derived fibroblasts)
Format: cell-based, human
Settings: 48 hours incubation, 7-point concentration curve
Description: The assay is used for the quantitative determination of Elongator complex protein 1 (ELP1, also referred to as IKBKAP) concentration in cell lysates using the HTRF® (Homogeneous Time-Resolved Fluorescence) technology. IKBKAP is detected in a sandwich HTRF assay by use of an anti-IKAP antibody labeled with a donor and an anti-IKAP antibody labeled with an acceptor.
Cells were thawed and incubated in DMEM-10% FBS for 72 hours. Cells were trypsinized, counted, and re-suspended to a concentration of 50,000 cells/mL in DMEM-10% FBS. A 199 μL aliquot of the cell suspensions were plated at 10,000 cells per well in a 96 well microtiter plate and incubated for 3 to 5 hours. […] Test compounds were serially diluted 3.16-fold in 100% DMSO to generate a 7-point concentration curve. A 1 μL aliquot of 200× compound solution was transferred to cell-containing wells, and cells were incubated for 48 hours in a cell culture incubator (37° C., 5% CO2, 100% relative humidity). Triplicate samples were set up for each compound concentration. After 48 hours, the supernatant was removed from the cells and 50 μL of the 1×LB4 lysis buffer, containing protease inhibitors, was added to the cells and incubated with shaking at room temperature for 1 hour. A 36 μL aliquot of this lysate was subsequently transferred to the 384-well plate containing 4 μL of the antibody solution (1:50 dilution of anti IKAP d2 and anti-IKAP K(9+8) in detection buffer). The 384-well plate was then centrifuged for 1 minute to bring the solutions to the bottom of the plate and incubated overnight at 4° C. Fluorescence for each well of the plate at 665 nm and 620 nm was measured was on the EnVision plate reader (Perkin Elmer). The ΔF for each sample is calculated by:
[formula] wherein Signal is the normalized fluorescence for each sample well and Blank is the average normalized average fluorescence for the Blank control wells.
The maximum fold increase (MFI) in IKBKAP protein abundance for compounds of Formula (I) or a form thereof relative to the vehicle control are provided in Table 1. MFI was calculated by dividing the ΔF value for each sample well by the sample ΔF for the vehicle control wells.
The EC2x for IKBKAP protein expression obtained from the 7-point concentration curve generated for each test compound according to the protocol in Biological Example 1 are also provided in Table 1. The term “EC2x for IKBKAP protein expression” is defined as the concentration of test compound that is effective in producing two times the amount of IKBKAP protein in a FD patient cell compared to the amount produced from the DMSO vehicle control.

SMILES | EC2x for IKBKAP protein expression (concentration producing two times the amount of IKBKAP protein vs DMSO vehicle control) | MFI (maximum fold increase in IKBKAP protein abundance relative to the vehicle control)
C[C@H](N)Cc1cc2nc(Cl)cc(NCc3ccco3)c2s1 [Compound 16, 2-[(2S)-2-aminopropyl]-5-chloro-N-[(furan-2-yl)methyl]thieno[3,2-b]pyridin-7-amine] | ***** (≤0.005 μM is indicated by five stars (*****)) | **** (between >3.9 and ≤4.9 is indicated by four stars (****))
N[C@@H](CO)Cc1cc2nc(Cl)cc(NCc3ccco3)c2s1 [Compound 17, (2R)-2-amino-3-(5-chloro-7-{[(furan-2-yl)methyl]amino}thieno[3,2-b]pyridin-2-yl)propan-1-ol] | ***** (≤0.005 μM is indicated by five stars (*****)) | **** (between >3.9 and ≤4.9 is indicated by four stars (****))
Cc1c(C[C@H](C)N)sc2c(NCc3ccco3)cc(Cl)nc12 [Compound 18, 2-[(2S)-2-aminopropyl]-5-chloro-N-[(furan-2-yl)methyl]-3-methylthieno[3,2-b]pyridin-7-amine] | ***** (≤0.005 μM is indicated by five stars (*****)) | ***** (>4.9 is indicated by five stars (*****))
CC[C@H](N)Cc1sc2c(NCc3ccco3)cc(Cl)nc2c1C [Compound 19, 2-[(2S)-2-aminobutyl]-5-chloro-N-[(furan-2-yl)methyl]-3-methylthieno[3,2-b]pyridin-7-amine] | ***** (≤0.005 μM is indicated by five stars (*****)) | ***** (>4.9 is indicated by five stars (*****))
Cc1c(C[C@H](C)N)sc2c(NCc3ccco3)cc(C#N)nc12 [Compound 20, 2-[(2S)-2-aminopropyl]-7-{[(furan-2-yl)methyl]amino}-3-methylthieno[3,2-b]pyridine-5-carbonitrile] | ***** (≤0.005 μM is indicated by five stars (*****)) | ***** (>4.9 is indicated by five stars (*****))
Cc1c([C@H](C)N)sc2c(NCc3ccco3)cc(Cl)nc12 [Compound 21, 2-[(1S)-1-aminoethyl]-5-chloro-N-[(furan-2-yl)methyl]-3-methylthieno[3,2-b]pyridin-7-amine] | **** (between >0.005 μM and ≤0.02 μM is indicated by four stars (****)) | **** (between >3.9 and ≤4.9 is indicated by four stars (****))
Cc1c([C@@H](C)N)sc2c(NCc3ccco3)cc(Cl)nc12 [Compound 22, 2-[(1R)-1-aminoethyl]-5-chloro-N-[(furan-2-yl)methyl]-3-methylthieno[3,2-b]pyridin-7-amine] | * (An EC2x>1 μM is indicated by one star (*)) | ** (between >1.9 and ≤2.9 is indicated by two stars (**))
C[C@@H](N)c1cc2nc(Cl)cc(NCc3ccco3)c2s1 [Compound 23, 2-[(1R)-1-aminoethyl]-5-chloro-N-[(furan-2-yl)methyl]thieno[3,2-b]pyridin-7-amine] | * (An EC2x>1 μM is indicated by one star (*)) | ** (between >1.9 and ≤2.9 is indicated by two stars (**))
C[C@H](N)c1cc2nc(Cl)cc(NCc3ccco3)c2s1 [Compound 24, 2-[(1S)-1-aminoethyl]-5-chloro-N-[(furan-2-yl)methyl]thieno[3,2-b]pyridin-7-amine] | * (An EC2x>1 μM is indicated by one star (*)) | ** (between >1.9 and ≤2.9 is indicated by two stars (**))
CNCc1cc2nc(Cl)cc(NCc3ccco3)c2s1 [Compound 25, 5-chloro-N-[(furan-2-yl)methyl]-2-[(methylamino)methyl]thieno[3,2-b]pyridin-7-amine] | *** (between >0.02 μM and ≤0.5 μM is indicated by three stars (***)) | *** (between >2.9 and ≤3.9 is indicated by three stars (***))
CN[C@@H](C)c1sc2c(NCc3ccco3)cc(Cl)nc2c1C [Compound 26, 5-chloro-N-[(furan-2-yl)methyl]-3-methyl-2-[(1S)-1-(methylamino)ethyl]thieno[3,2-b]pyridin-7-amine] | *** (between >0.02 μM and ≤0.5 μM is indicated by three stars (***)) | **** (between >3.9 and ≤4.9 is indicated by four stars (****))
CNCc1sc2c(NCc3ccco3)cc(Cl)nc2c1C [Compound 27, 5-chloro-N-[(furan-2-yl)methyl]-3-methyl-2-[(methylamino)methyl]thieno[3,2-b]pyridin-7-amine] | *** (between >0.02 μM and ≤0.5 μM is indicated by three stars (***)) | **** (between >3.9 and ≤4.9 is indicated by four stars (****))
Cc1c(C[C@H](C)N)sc2c(NCc3cccs3)cc(Cl)nc12 [Compound 28, 2-[(2S)-2-aminopropyl]-5-chloro-3-methyl-N-[(thiophen-2-yl)methyl]thieno[3,2-b]pyridin-7-amine] | ***** (≤0.005 μM is indicated by five stars (*****)) | ***** (>4.9 is indicated by five stars (*****))
Cc1c(C[C@H](C)N)sc2c(NCc3ccccc3F)cc(Cl)nc12 [Compound 29, 2-[(2S)-2-aminopropyl]-5-chloro-N-[(2-fluorophenyl)methyl]-3-methylthieno[3,2-b]pyridin-7-amine] | ***** (≤0.005 μM is indicated by five stars (*****)) | ***** (>4.9 is indicated by five stars (*****))
Cc1c([C@@H](N)C(C)C)sc2c(NCc3ccco3)cc(Cl)nc12 [Compound 30, 2-[(1S)-1-amino-2-methylpropyl]-5-chloro-N-[(furan-2-yl)methyl]-3-methylthieno[3,2-b]pyridin-7-amine] | * (An EC2x>1 μM is indicated by one star (*)) | * (An MFI≤1.9 is indicated by one star (*))
Cc1c([C@H](N)C(C)C)sc2c(NCc3ccco3)cc(Cl)nc12 [Compound 31, 2-[(1R)-1-amino-2-methylpropyl]-5-chloro-N-[(furan-2-yl)methyl]-3-methylthieno[3,2-b]pyridin-7-amine] | * (An EC2x>1 μM is indicated by one star (*)) | * (An MFI≤1.9 is indicated by one star (*))
CN[C@H](c1sc2c(NCc3ccco3)cc(Cl)nc2c1C)C(C)C [Compound 32, 5-chloro-N-[(furan-2-yl)methyl]-3-methyl-2-[(1S)-2-methyl-1-(methylamino)propyl]thieno[3,2-b]pyridin-7-amine] | * (An EC2x>1 μM is indicated by one star (*)) | * (An MFI≤1.9 is indicated by one star (*))
CC[C@H](N)Cc1sc2c(NCc3cccs3)cc(Cl)nc2c1C [Compound 33, 2-[(2S)-2-aminobutyl]-5-chloro-3-methyl-N-[(thiophen-2-yl)methyl]thieno[3,2-b]pyridin-7-amine] | ***** (≤0.005 μM is indicated by five stars (*****)) | ***** (>4.9 is indicated by five stars (*****))
